Experiments:
[1] = test system: THP1 human AML cell line; test: Viability of human AML cells (THP1) treated in culture with iCT in combination with DON; assay type: cell-based; conditions: different doses of iCT (cytarabine+doxorubicin) in combination with DON, 72 h in vitro, FIG. 5A
Method: Arrows show the range where synergism occurs. […] FIG. 5C provides the chemical structure of glutamine and 6-diazo-5-oxo-L-norleucine (DON). FIGS. 5D-5E show survival of AML-bearing mice treated with iCT (days 7-11) with or without short term 6-diazo-5-oxo-L-norleucine (DON; 0.3 mg/kg), showing the treatment schedule (FIG. 5D) and Kaplan-Meier survival curves (FIG. 5E). iCT+DON: both given at same time; iCT+DON^+3: DON started 3 days after first dose of iCT. FIGS. 5F-5G show survival of AML-bearing mice treated with iCT (days 7-11) with or without continuous DON ([…]), showing the treatment schedule (FIG. 5F) and Kaplan-Meier survival curves (FIG. 5G). iCT+DON^post: DON started after last dose of iCT.
(§1) To confirm that glutamine metabolism plays a functional role in protecting AML cells from chemotherapy, human AML cells (THP1) were treated in culture with iCT in combination with 6-diazo-5-oxo-L-norleucine (DON), a glutamine analog and antagonist that inhibits all glutamine-dependent enzymes (FIG. 5C). […] Mice carrying AML were then treated in combination with DON at different regimens (FIG. 5D).

[2] = test system: MLL-AF9 AML cells; test: Survival of AML-bearing mice treated with iCT with or without DON; assay type: in vivo, mouse
Method: Arrows show the range where synergism occurs. […] FIG. 5C provides the chemical structure of glutamine and 6-diazo-5-oxo-L-norleucine (DON). FIGS. 5D-5E show survival of AML-bearing mice treated with iCT (days 7-11) with or without short term 6-diazo-5-oxo-L-norleucine (DON; 0.3 mg/kg), showing the treatment schedule (FIG. 5D) and Kaplan-Meier survival curves (FIG. 5E). iCT+DON: both given at same time; iCT+DON^+3: DON started 3 days after first dose of iCT. […]
To test this hypothesis, a mouse model was used in which cells express MLLAF9, driving leukemia development, luciferase, and GFP. The mouse model allows real-time monitoring of leukemic burden through bioluminescence imaging, and therefore identification of the moment of maximal response to iCT. Bone marrow cells derived from terminally ill primary mice were intravenously transplanted into secondary wildtype recipients, leading to the development of a very aggressive disease that can be monitored in real time since only AML cells express luciferase and GFP. Mice were treated with a chemotherapy regimen that closely mimics the one used in patients (cytarabine for 5 days and doxorubicin for the first 3 days) or vehicle, and followed disease progression using bioluminescence imaging (FIG. 6A). It was discovered that the amount of maximal response occurs 3-4 days after the last dose of chemotherapy (FIG. 6B). This means that at this moment, after the selection pressure of chemotherapy, massive neighboring cell death, and possibly other stress factors such as niche alteration, certain cells have adapted and are now started to grow again.
as §1

[3] = Tolerability of daily DON injections in mice carrying AML; assay type: in vivo, mouse; conditions: daily injections extended for more than 5 days
Method: as §1

Structure (SMILES): [N-]=[N+]=CC(=O)CC[C@H](N)C(=O)O [DON, 6-diazo-5-oxo-L-norleucine]
- interaction of iCT and DON on viability of THP1 cells [1]: synergy at several doses
- survival of AML-bearing mice, DON given together with iCT, versus iCT alone ([2]; DON 0.3 mg/kg daily for 5 days at the same time as iCT (cytarabine 100 mg/kg 5 days + doxorubicin 3 mg/kg first 3 days), FIG. 5B/5E): did not extend survival
- survival of AML-bearing mice, DON short treatment ([2]; DON daily for 5 days at 0.3 mg/kg, FIG. 5B/5E): did not have much effect
- interaction between iCT and DON treatment on survival ([2]; DON every other day at 0.3 mg/kg, extended treatment after iCT, FIG. 5G): clear synergism
- survival of AML-bearing mice, DON every other day after iCT, versus iCT alone ([2]; DON every other day at 0.3 mg/kg, started after last dose of iCT (iCT+DONpost), p=0.0019, FIG. 5F/5G): increased substantially
- survival of AML-bearing mice, DON delayed 3 days after first dose of iCT ([2]; iCT+DON+3: short-term DON 0.3 mg/kg started 3 days after first dose of iCT, spanning the moment of maximal response, FIG. 5E): a clear survival benefit was achieved
- lethality of daily DON injections [3]: proved lethal

Source: US20210177880A1, “METHODS AND COMPOSITIONS FOR TREATING ACUTE MYELOID LEUKEMIA” (President and Fellows of Harvard College, priority 2017, published 2021)
